Laboratory results taken from patent US20260297105A1, “RAF-MEK PROTEIN COMPLEX MODULATORS AND METHODS OF USE THEREOF” (GANDEEVA THERAPEUTICS, INC., priority 2023, published 2026).
Where two headings read alike, the source gives them in different places.

Key:
MEK1 = target: T1, MEK1 (Homo sapiens, UniProt Q02750); test: MEK1 kinase cascade assay (ADP-Glo), inhibition of MEK1 kinase activity; assay type: biochemical; details: 25 nM BRAF, 6.25 nM MEK1, 0.5 μM ERK, 1 mM ATP; 20 min preincubation, 1 hr at 25° C.; read-out: BRAF ADP Glo kinase assay V3 (IC50)
T1 construct: purchased SignalChem M02-14H
Text: (§1) Protein expression and purification: BRAF (445-723) with N-term His-tag and C-term StrepII tag was expressed using the Expi293 system (ThermoFisher) and purified using Strep-Tactin® XT-Superflow (IBA) chromatography. ERK1 (full-length) with N-term His-tag was expressed in Rosetta DE3 cells (Millipore) and purified using HisTrap HP (Cytiva) and Superdex 200 (Cytiva) column chromatography. Full-length MEK1 for TR-FRET assays with N-term His-tag was expressed in BL21DE3 cells (ThermoFisher) and purified using HisTrap HP (Cytiva) and Superdex 200 (Cytiva) column chromatography.
Efficacy of exemplary compounds in inhibition of MEK1 kinase activity: The effect of compound MEK1 inhibition was evaluated using an ADP detection system for kinases, such as the ADP-Glo assay (Promega). The MEK1 kinase cascade assay consisted of 9 μL reaction volumes in 384-well white, opaque Optiplates (PerkinElmer). Compounds were prepared from DMSO stocks in assay buffer (10 mM HEPES pH 7.5, 5 mM MgCl2, 2 mM CHAPS, and 1 mM DTT) and preincubated with 25 nM BRAF for 20 mins at 25° C. prior to addition of 6.25 nM MEK1/0.5 μM ERK/1 mM ATP premix to initiate the kinase reaction. Both BRAF and ERK1 were produced in-house, and MEK1 was purchased from SignalChem (M02-14H). DMSO was kept constant at a final concentration of 1%. After a 1 hr incubation at 25° C., conversion of ATP to ADP was detected using ADP-Glo™ reagents according to the manufacturer's protocol. Luminescence was measured using a CLARIOstar microplate reader (BMG). Percent (%) Inhibition was calculated by normalizing to DMSO control (max) and 1 μM Trametinib (min). % inhibition as a function of compound concentration from 2 replicate wells was fit with a 4-parameter logistic curve equation using GraphPad Prism or CDD Vault to derive IC50 values.
(§2) In this table, for the BRAF ADP Glo kinase assay, “A” indicates IC50 of less than 5 nM; “B” indicates IC50 of between 5 nM to 50 nM; and “C” indicates IC50 of between 50 nM to 500 nM. “D” indicates IC50 of greater than 500 nM. For the BRAF-MEK TR-FRET assay, “A” indicates EC50 of less than 50 nM; “B” indicates EC50 of between 50 nM to 200 nM; and “C” indicates EC50 of between 200 nM to 1 μM. “D′” indicates EC50 of greater than 1 μM. For the AlphaLisa P-ERK assay, “A” indicates IC50 of less than 1 nM; “B” indicates IC50 of between 1 nM to 10 nM; and “C” indicates IC50 of between 10 nM to 100 nM. “D” indicates IC50 of greater than 100 nM. For the cell viability assay, “A” indicates IC50 of less than 1 nM; “B” indicates IC50 of between 1 nM to 10 nM; and “C” indicates IC50 of between 10 nM to 100 nM. “D” indicates IC50 of greater than 100 nM.

BRAF-MEK1 = test: BRAF-MEK TR-FRET assay, stabilization of MEK1 and BRAF interaction; assay type: binding; details: 4 nM BRAF, 10 nM MEK, 100 μM ATP, 1 hr at 25° C., read-out: BRAF-MEK TR-FRET Assay (EC50, fold stabilization)
Text: as §1
Efficacy of exemplary compounds in stabilization of MEK1 and BRAF interaction: Compound stabilization of BRAF-MEK interaction was evaluated using TR-FRET (Time Resolved Fluorescence Energy Transfer). The FRET assay consisted of His-tagged MEK1 (produced in-house), GST-tagged BRAF (SignalChem, B08-11G), Anti His-Tb Cryptate donor, and Anti GST-XL665 acceptor fluorophores (PerkinElmer) to generate FRET signal upon BRAF-MEK1 binding. Compounds were prepared from DMSO stocks in assay buffer (50 mM Tris pH 7.5, 150 mM NaCl, 1 mM DTT, 0.05% Tween-20, 5 mM MgCl2, and 100 μM ATP) and incubated with 4 nM BRAF and 10 nM MEK for 1 hr at 25° C. 1 ng Anti His-Tb Cryptate/20 ng Anti GST-XL665 premix was then added and incubated for 1 hr at 25° C. TR-FRET was measured using Cytation5 microplate reader (Agilent) using Ex/Em=340/620 nm and Ex/Em=340/665 nm to determine the FRET ratio. Fold stabilization was calculated as FRET signal of treated well/DMSO control. Fold stabilization as a function of compound concentration from 2 replicate wells was fit with a 4-parameter logistic curve equation using GraphPad Prism or CDD Vault to derive EC50 values.
as §2

T1 sequence (Q02750 whole entry): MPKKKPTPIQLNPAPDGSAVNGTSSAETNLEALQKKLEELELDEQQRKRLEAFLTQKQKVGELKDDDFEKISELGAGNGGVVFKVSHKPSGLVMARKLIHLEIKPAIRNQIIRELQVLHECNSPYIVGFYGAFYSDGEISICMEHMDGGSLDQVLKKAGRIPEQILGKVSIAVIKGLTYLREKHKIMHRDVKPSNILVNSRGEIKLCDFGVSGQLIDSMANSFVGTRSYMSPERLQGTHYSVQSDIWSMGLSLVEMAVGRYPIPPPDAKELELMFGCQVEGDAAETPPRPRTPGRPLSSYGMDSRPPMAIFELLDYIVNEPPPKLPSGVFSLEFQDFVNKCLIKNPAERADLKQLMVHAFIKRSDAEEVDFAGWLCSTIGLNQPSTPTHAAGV
T1 sequence (P15056 445-723 partner limits assumed): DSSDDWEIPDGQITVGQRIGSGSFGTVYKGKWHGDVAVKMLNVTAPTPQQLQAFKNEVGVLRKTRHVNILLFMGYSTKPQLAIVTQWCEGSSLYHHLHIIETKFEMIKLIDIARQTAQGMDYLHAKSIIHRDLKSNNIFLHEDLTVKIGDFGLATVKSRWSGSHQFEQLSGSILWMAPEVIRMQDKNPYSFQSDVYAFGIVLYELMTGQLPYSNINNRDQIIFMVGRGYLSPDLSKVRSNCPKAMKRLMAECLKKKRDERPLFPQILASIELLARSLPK

Row | Compound | IC50 (MEK1) [nM] | EC50 (BRAF-MEK1) [nM] | EC50 (BRAF-MEK1; 60 min) [nM]
1 | CNS(=O)(=O)Nc1cccc(CN2C(=O)Oc3c(ccc(OC(=O)N(C)C)c3F)[C@H]2C)c1F (single isomer, unassigned) [Compound 104, (R)-8-fluoro-3-(2-fluoro-3-((N-methylsulfamoyl)amino)benzyl)-4-methyl-2-oxo-3,4-dihydro-2H-benzo[e][1,3]oxazin-7-yl dimethylcarbamate or (S)-8-fluoro-3-(2-fluoro-3-((N-methylsulfamoyl)amino)benzyl)-4-methyl-2-oxo-3,4-dihydro-2H-benzo[e][1,3]oxazin-7-yl dimethylcarbamate] | 5 to 50 | 200 to 1000 | –
2 | CNS(=O)(=O)Nc1nccc(CN2C(=O)Oc3cc(Oc4ncco4)c(F)cc3C2C)c1F (single isomer, unassigned) [Compound 185, 6-fluoro-3-{[3-fluoro-2-(methylaminosulfonylamino)-4-pyridyl]methyl}-4-methyl-7-(1,3-oxazol-2-yloxy)-3,4-dihydro-2H-1,3-benzoxazin-2-one] | 5 to 50 | – | 50 to 200
3 | CNS(=O)(=O)Nc1nccc(CN2C(=O)Oc3cc(Oc4ncco4)c(F)cc3C2C)c1F (single isomer, unassigned) [Compound 186, 6-fluoro-3-{[3-fluoro-2-(methylaminosulfonylamino)-4-pyridyl]methyl}-4-methyl-7-(1,3-oxazol-2-yloxy)-3,4-dihydro-2H-1,3-benzoxazin-2-one] | 50 to 500 | – | 200 to 1000
4 | CNS(=O)(=O)Nc1cccc(CN2C(=O)Oc3cc(Oc4cccnn4)cnc3[C@H]2C)c1F (stereo in doubt) [Compound 175] | 5 to 50 | 50 to 200 | –
5 | CNS(=O)(=O)Nc1nccc(CN2C(=O)Oc3cc(Oc4ncco4)cnc3[C@@H]2C)c1F (stereo in doubt) [Compound 191, 3-{[3-fluoro-2-(methylaminosulfonylamino)-4-pyridyl]methyl}-4-methyl-7-(1,3-oxazol-2-yloxy)-3,4-dihydro-2H-1-oxa-3,5-diazanaphthalen-2-one] | 50 to 500 | 50 to 200 | –
6 | CNS(=O)(=O)Nc1nccc(CN2C(=O)Oc3cc(Oc4cccnn4)cnc3[C@H]2C)c1F (stereo in doubt) [Compound 192, 3-{[3-fluoro-2-(methylaminosulfonylamino)-4 pyridyl]methyl}-4-methyl-7-(3-pyridazinyloxy)-3,4-dihydro-2H-1-oxa-3,5 diazanaphthalen-2-one] | 5 to 50 | – | 200 to 1000
7 | CNS(=O)(=O)Nc1nccc(CN2C(=O)Oc3cc(Oc4nccnn4)cnc3[C@@H]2C)c1F (stereo in doubt) [Compound 198, 3-{[3-fluoro-2-(methylaminosulfonylamino)-4-pyridyl]methyl}-4-methyl-7-(1,2,4-triazin-3-yloxy)-3,4-dihydro-2H-1-oxa-3,5-diazanaphthalen-2-one] | 5 to 50 | – | < 50
8 | CNS(=O)(=O)Nc1nccc(CN2C(=O)Oc3cc(Oc4cccnn4)ccc3C23COC3)c1F [Compound 24, 3-({3-fluoro-2-[(methylsulfamoyl)amino]pyridin-4-yl}methyl)-7-(pyridazin-3-yloxy)-2,3-dihydrospiro[1,3-benzoxazine-4,3′-oxetan]-2-one] | 5 to 50 | 50 to 200 | –
9 | CN(C)S(=O)(=O)Nc1cccc(CN2C(=O)Oc3cc(Oc4cccnn4)ccc3C23CCC3)c1F [Compound 25, 3-{[3-(dimethylaminosulfonylamino)-2-fluorophenyl]methyl}-7-(3-pyridazinyloxy)-2H,3H-spiro[1,3-benzoxazine-4,1′-cyclobutan]-2-one] | < 5 | < 50 | –
10 | CN(C)C(=O)Oc1ccc2c(c1)OC(=O)N(Cc1cccc(NS(=O)(=O)N3CCC(C(N)=O)C3)c1F)C2 (stereo not drawn) [Compound 28, 3-[(3-{[(3-carbamoylpyrrolidin-1-yl)sulfonyl]amino}-2-fluorophenyl)methyl]-2-oxo-3,4-dihydro-2H-1,3-benzoxazin-7-yl N,N-dimethylcarbamate] | 5 to 50 | 200 to 1000 | –
11 | [2H]C1([2H])c2ccc(Oc3nccnn3)cc2OC(=O)N1Cc1cccc(NS(=O)(=O)NC)c1F [Compound 31, 3-({2-fluoro-3-[(methylsulfamoyl)amino]phenyl}methyl)-7-(1,2,4-triazin-3-yloxy)-3,4-dihydro(4,4-^2 H2)-2H-1,3-benzoxazin-2-one] | 5 to 50 | < 50 | –
12 | CNS(=O)(=O)Nc1nccc(CN2C(=O)Oc3cc(Oc4cccnn4)ccc3C2(C)C)c1F [Compound 32, 3-({3-fluoro-2-[(methylsulfamoyl)amino]pyridin-4-yl}methyl)-4,4-dimethyl-7-(pyridazin-3-yloxy)-3,4-dihydro-2H-1,3-benzoxazin-2-one] | 5 to 50 | 200 to 1000 | –
13 | CN(C)C(=O)Oc1ccc2c(c1)OC(=O)N(Cc1cccc(NS(=O)(=O)N(C)C)c1F)C21CCC1 [Compound 33, 3-({3-[(dimethylsulfamoyl)amino]-2-fluorophenyl}methyl)-2-oxo-2,3-dihydrospiro[1,3-benzoxazine-4,1′-cyclobutan]-7-yl N,N-dimethyl carbamate] | 5 to 50 | 50 to 200 | –
14 | CN(C)S(=O)(=O)Nc1cccc(CN2C(=O)Oc3cc(Oc4cccnn4)ccc3C2(C)C)c1F [Compound 34, 3-{[3-(dimethylaminosulfonylamino)-2-fluorophenyl]methyl}-4,4-dimethyl-7-(3-pyridazinyloxy)-3,4-dihydro-2H-1,3-benzoxazin-2-one] | < 5 | 200 to 1000 | –
15 | CN(C)S(=O)(=O)Nc1cccc(CN2Cc3ccc(Oc4cccnn4)cc3OC2=O)c1F [Compound 37, 3-{[3-(dimethylaminosulfonylamino)-2-fluorophenyl]methyl}-7-(3-pyridazinyloxy)-3,4-dihydro-2H-1,3-benzoxazin-2-one] | 5 to 50 | 50 to 200 | –
16 | CNS(=O)(=O)Nc1cccc(CN2C(=O)Oc3cc(OC(=O)N(C)C)ccc3C23CN(C)C3)c1F [Compound 48, 3′-(2-fluoro-3-((N-methylsulfamoyl)amino)benzyl)-1-methyl-2′-oxo-2′,3′-dihydrospiro[azetidine-3,4′-benzo[e][1,3]oxazin]-7′-yl dimethylcarbamate] | 5 to 50 | 200 to 1000 | –
17 | CNS(=O)(=O)Nc1cccc(CN2C(=O)Oc3cc(OC(=O)N(C)C)ccc3C23CNC3)c1F [Compound 49] | 5 to 50 | 200 to 1000 | –
18 | CNS(=O)(=O)Nc1cccc(CN2Cc3cc(F)c(Oc4ncccn4)cc3OC2=O)c1F [Compound 83, 6-fluoro-3-{[2-fluoro-3-(methylaminosulfonylamino)phenyl]methyl}-7-(2-pyrimidinyloxy)-3,4-dihydro-2H-1,3-benzoxazin-2-one] | 5 to 50 | 200 to 1000 | –
